Legend:
[1] = test system: widespread pain in the neck, shoulders, arms and legs; experiment: Case report: patient with widespread pain, headaches, non-restorative sleep and fatigue, oral treatment at H.S.; type: in vivo, human; settings: person; before combination treatment
[2] = test system: widespread pain in the neck, back and arms associated with fibromyalgia; experiment: Case report: patient with fibromyalgia pain, oral treatment at H.S.; type: in vivo, human; settings: person; analgesic taken by itself, before combination treatment

Compound | response of pain to analgesic alone [1] | response of pain to analgesic by itself [2]
CC(C)Cc1ccc(C(C)C(=O)O)cc1 (stereo not drawn) [ibuprofen] | unresponsive | –
CC(=O)Oc1ccccc1C(=O)O [aspirin] | – | unresponsive
CC(=O)Nc1ccc(O)cc1 [acetaminophen] | – | unresponsive

Reference: US20100197663A1, “METHOD AND COMPOSITIONS FOR TREATMENT OF PAINFUL DISORDERS” (RODLEN LABORATORIES, INC., priority 2004, published 2010)
